Results published in ChEMBL document CHEMBL1201862, “PubChem BioAssay data set” (2004).
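Exposure lasted 48 hours, with cells grown in 96-well plates and compounds tested at five concentrations. GI50 is the concentration that inhibits growth by half.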 The source made the active and inactive calls. Cut-off read from the data, not from the text of the source: active = GI50 up to about 1.1 µM and inactive = higher.

Columns and labels:
Assay in all cases: growth of human tumour cells (NCI), 48 h
COLO 205 = test system: COLO 205
SN12C = test system: SN12C
HOP-62 = test system: HOP-62
RXF 393 = test system: RXF 393
MCF7 = test system: MCF7
LOX IMVI = test system: LOX IMVI
U-251 = test system: U-251
SNB-19 = test system: SNB-19
KM12 = test system: KM12
SNB-75 = test system: SNB-75
A549 = test system: A549
SW-620 = test system: SW-620
MDA-MB-231 = test system: MDA-MB-231
SK-MEL-2 = test system: SK-MEL-2
UACC-257 = test system: UACC-257
NCI-H23 = test system: NCI-H23
NCI-H460 = test system: NCI-H460
HOP-92 = test system: HOP-92
RPMI-8226 = test system: RPMI-8226
EKVX = test system: EKVX
OVCAR-4 = test system: OVCAR-4
OVCAR-3 = test system: OVCAR-3
SF-268 = test system: SF-268
IGROV-1 = test system: IGROV-1
786-0 = test system: 786-0
OVCAR-8 = test system: OVCAR-8
NCI-H522 = test system: NCI-H522
SK-OV-3 = test system: SK-OV-3
CCRF-CEM = test system: CCRF-CEM
Hs-578T = test system: Hs-578T
SK-MEL-5 = test system: SK-MEL-5
HT-29 = test system: HT-29
SR = test system: SR
K562 = test system: K562
TK-10 = test system: TK-10
CAKI-1 = test system: CAKI-1
DU-145 = test system: DU-145
MOLT-4 = test system: MOLT-4
SF-539 = test system: SF-539
T47D = test system: T47D
A498 = test system: A498
UACC-62 = test system: UACC-62
M14 = test system: M14
HCC 2998 = test system: HCC 2998
ACHN = test system: ACHN
MDA-MB-435 = test system: MDA-MB-435
SK-MEL-28 = test system: SK-MEL-28
NCI/ADR-RES = test system: NCI/ADR-RES
SF-295 = test system: SF-295
NCI-H226 = test system: NCI-H226
PC-3 = test system: PC-3
HCT-116 = test system: HCT-116
UO-31 = test system: UO-31
HCT-15 = test system: HCT-15
BT-549 = test system: BT-549
OVCAR-5 = test system: OVCAR-5
Malme-3M = test system: Malme-3M
HL-60 = test system: HL-60

SMILES: CCOC(=O)c1cn2c(n1)sc1cc([N+](=O)[O-])ccc12
- GI50 (COLO 205): > 100 µM (inactive)
- GI50 (SN12C): > 100 µM (inactive)
- GI50 (HOP-62): 37 µM (inactive)
- GI50 (RXF 393): > 100 µM (inactive)
- GI50 (MCF7): > 100 µM (inactive)
- GI50 (LOX IMVI): > 100 µM (inactive)
- GI50 (U-251): 76 µM (inactive)
- GI50 (SNB-19): 78.2 µM (inactive)
- GI50 (KM12): > 100 µM (inactive)
- GI50 (SNB-75): 58.2 µM (inactive)
- GI50 (A549): > 100 µM (inactive)
- GI50 (SW-620): > 100 µM (inactive)
- GI50 (MDA-MB-231): 38.5 µM (inactive)
- GI50 (SK-MEL-2): > 100 µM (inactive)
- GI50 (UACC-257): > 100 µM (inactive)
- GI50 (NCI-H23): > 100 µM (inactive)
- GI50 (NCI-H460): > 100 µM (inactive)
- GI50 (HOP-92): > 100 µM (inactive)
- GI50 (RPMI-8226): > 100 µM (inactive)
- GI50 (EKVX): > 100 µM (inactive)
- GI50 (OVCAR-4): > 100 µM (inactive)
- GI50 (OVCAR-3): > 100 µM (inactive)
- GI50 (SF-268): > 100 µM (inactive)
- GI50 (IGROV-1): > 100 µM (inactive)
- GI50 (786-0): 43.1 µM (inactive)
- GI50 (OVCAR-8): > 100 µM (inactive)
- GI50 (NCI-H522): > 100 µM (inactive)
- GI50 (SK-OV-3): > 100 µM (inactive)
- GI50 (CCRF-CEM): > 100 µM (inactive)
- GI50 (Hs-578T): > 100 µM (inactive)
- GI50 (SK-MEL-5): > 100 µM (inactive)
- GI50 (HT-29): 86.1 µM (inactive)
- GI50 (SR): > 100 µM (inactive)
- GI50 (K562): > 100 µM (inactive)
- GI50 (TK-10): > 100 µM (inactive)
- GI50 (CAKI-1): > 100 µM (inactive)
- GI50 (DU-145): > 100 µM (inactive)
- GI50 (MOLT-4): > 100 µM (inactive)
- GI50 (SF-539): 62.7 µM (inactive)
- GI50 (T47D): > 100 µM (inactive)
- GI50 (A498): > 100 µM (inactive)
- GI50 (UACC-62): > 100 µM (inactive)
- GI50 (M14): > 100 µM (inactive)
- GI50 (HCC 2998): > 100 µM (inactive)
- GI50 (ACHN): 92.3 µM (inactive)
- GI50 (MDA-MB-435): > 100 µM (inactive)
- GI50 (SK-MEL-28): > 100 µM (inactive)
- GI50 (NCI/ADR-RES): > 100 µM (inactive)
- GI50 (SF-295): 37.3 µM (inactive)
- GI50 (NCI-H226): > 100 µM (inactive)
- GI50 (PC-3): > 100 µM (inactive)
- GI50 (HCT-116): > 100 µM (inactive)
- GI50 (UO-31): > 100 µM (inactive)
- GI50 (HCT-15): > 100 µM
- GI50 (BT-549): 74.6 µM (inactive)
- GI50 (OVCAR-5): > 100 µM (inactive)
- GI50 (Malme-3M): > 100 µM (inactive)

SMILES: Cn1c(-c2cccc([N+](=O)[O-])c2)[n+](C)c2ccccc21
- GI50 (COLO 205): 17.7 µM (inactive)
- GI50 (HOP-62): > 100 µM (inactive)
- GI50 (RXF 393): > 100 µM (inactive)
- GI50 (MCF7): > 100 µM (inactive)
- GI50 (LOX IMVI): > 100 µM (inactive)
- GI50 (U-251): > 100 µM (inactive)
- GI50 (SNB-19): > 100 µM (inactive)
- GI50 (KM12): > 100 µM (inactive)
- GI50 (SNB-75): > 100 µM (inactive)
- GI50 (A549): 46.9 µM (inactive)
- GI50 (SW-620): > 100 µM (inactive)
- GI50 (MDA-MB-231): > 100 µM (inactive)
- GI50 (SK-MEL-2): > 100 µM (inactive)
- GI50 (UACC-257): > 100 µM (inactive)
- GI50 (NCI-H23): 25.7 µM (inactive)
- GI50 (NCI-H460): > 100 µM (inactive)
- GI50 (HOP-92): > 100 µM (inactive)
- GI50 (RPMI-8226): > 100 µM (inactive)
- GI50 (EKVX): > 100 µM (inactive)
- GI50 (OVCAR-4): > 100 µM (inactive)
- GI50 (OVCAR-3): 30.8 µM (inactive)
- GI50 (SF-268): 87.7 µM (inactive)
- GI50 (IGROV-1): 44.4 µM (inactive)
- GI50 (786-0): > 100 µM (inactive)
- GI50 (OVCAR-8): 49 µM (inactive)
- GI50 (SK-OV-3): > 100 µM (inactive)
- GI50 (CCRF-CEM): > 100 µM (inactive)
- GI50 (Hs-578T): > 100 µM (inactive)
- GI50 (SK-MEL-5): 76.7 µM (inactive)
- GI50 (HT-29): 40.9 µM (inactive)
- GI50 (SR): > 100 µM (inactive)
- GI50 (K562): > 100 µM (inactive)
- GI50 (TK-10): > 100 µM (inactive)
- GI50 (CAKI-1): > 100 µM (inactive)
- GI50 (DU-145): > 100 µM (inactive)
- GI50 (MOLT-4): > 100 µM (inactive)
- GI50 (SF-539): > 100 µM (inactive)
- GI50 (T47D): > 100 µM (inactive)
- GI50 (A498): > 100 µM (inactive)
- GI50 (UACC-62): > 100 µM (inactive)
- GI50 (M14): > 100 µM (inactive)
- GI50 (HCC 2998): > 100 µM (inactive)
- GI50 (HL-60): 29.2 µM (inactive)
- GI50 (ACHN): 41.6 µM (inactive)
- GI50 (MDA-MB-435): > 100 µM (inactive)
- GI50 (SK-MEL-28): > 100 µM (inactive)
- GI50 (NCI/ADR-RES): > 100 µM (inactive)
- GI50 (SF-295): > 100 µM (inactive)
- GI50 (NCI-H226): > 100 µM (inactive)
- GI50 (PC-3): 46.8 µM (inactive)
- GI50 (HCT-116): > 100 µM (inactive)
- GI50 (UO-31): > 100 µM (inactive)
- GI50 (HCT-15): > 100 µM
- GI50 (BT-549): > 100 µM (inactive)
- GI50 (OVCAR-5): > 100 µM (inactive)
- GI50 (Malme-3M): 89.3 µM (inactive)
